Assay results as given in PMC11456916, “A screen for cell envelope stress uncovers an inhibitor of prolipoprotein diacylglyceryl transferase, Lgt, in Escherichiacoli” (iScience, 2024).
Like-named read-outs stand apart in the source and are kept apart here.

Key:
K. pneumoniae MKP103 = assay: MIC assay with or without SPR741, K. pneumoniae; assay type: cell-based, Klebsiella pneumoniae; details: for MIC: Klebsiella pneumoniae
Method: We next sought to determine whether we could achieve growth inhibition of wild-type E. coli using MAC-0452936 and an antibiotic adjuvant. […] To that end, we determined the MIC of MAC-0452936 against wild-type E. coli in the presence and absence of a sub-MIC concentration of SPR741 (Figure S8B). […] We leveraged this combination to characterize the spectrum of activity of MAC-0452936 against a panel of Gram-negative pathogens (Table 2). In the presence of 8 μg/mL SPR741, we observed MAC-0452936 activity against the clinical E. coli isolates C0244 and CFT073 at 2 μg/mL as well as against Salmonella Typhimurium SL1344 at 4 μg/mL.
For MIC assays, cultures of bacteria were grown in LB broth. Overnight cultures were diluted (1:100) into fresh LB media and grown to the mid-log phase of growth (OD600 ∼0.5). Subcultures were then normalized to an OD600 of 0.1, and diluted (1:5000) into assay media. Assay plates were then incubated for 18 h at 37°C, then OD600 was measured using a Biotek Neo plate reader.

[1] = tested on: 356 CRISPRi constructs in E. coli ΔtolC-pore; assay: CRISPRi collection fitness screen with sub-inhibitory compound; assay type: cell-based; details: sub-inhibitory (¼ MIC) concentration, LB agar, basal knockdown
Procedure, shortened: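 Mobile CRISPRi collection conjugated into the ΔtolC-pore strain and pinned on agar at 1536 density in technical quadruplicate with a sub-inhibitory MAC-0452936 concentration. No CRISPRi induction; only basal 5–10% knockdown.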

COc1ccc(C(=O)O/N=C(\c2cccs2)C(C)(C)C)cc1 [MAC-0452936, (Z)-2-Pivaloylthiophene O-(4-methoxybenzoyl) oxime]
MIC, K. pneumoniae MKP103 + 8 μg/mL SPR741 (K. pneumoniae MKP103; 8 μg/mL SPR741): did not observe MAC-0452936 activity
MIC (K. pneumoniae MKP103; MKP103, read-out: MIC, K. pneumoniae MKP103 + 0 μg/mL SPR741): > 64 µg/mL
MIC (K. pneumoniae MKP103; MKP103, read-out: MIC, K. pneumoniae MKP103 + 8 μg/mL SPR741): > 64 µg/mL
growth defect of the lgt CRISPRi mutant in the presence of compound [1]: considerable growth defect
